Data set [1] relates to IFNγ stimulated STAT1 phosphorylation on Tyr701 (JAK1/2). The data set is described as follows: JAK1/2 cellular target modulation: IFNγ stimulated phospho-STAT1 in human PBMC. The note with it: IFNγ 10 ng/ml, read-out: Infγ-STAT1 IC50. It is filed as cell-based. A digest of the protocol: (§1)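 Thawed human PBMC (200,000/well) preincubated with compound 1 h at 37°C, then stimulated with IL-12 1.7 ng/ml for 25 min, IFNγ 10 ng/ml for 10 min, or IL-2 25 ng/ml for 5 min. Lysate phospho-STAT4 Tyr693 and phospho-STAT5 Tyr694 read by MSD; phospho-STAT1 Tyr701 by sandwich ELISA.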

The target of data set [2] is T1, JAK2 (Homo sapiens, UniProt O60674).
T1 construct: purchased Thermo Fisher Scientific (SelectScreen service)
T1 sequence (O60674 whole entry): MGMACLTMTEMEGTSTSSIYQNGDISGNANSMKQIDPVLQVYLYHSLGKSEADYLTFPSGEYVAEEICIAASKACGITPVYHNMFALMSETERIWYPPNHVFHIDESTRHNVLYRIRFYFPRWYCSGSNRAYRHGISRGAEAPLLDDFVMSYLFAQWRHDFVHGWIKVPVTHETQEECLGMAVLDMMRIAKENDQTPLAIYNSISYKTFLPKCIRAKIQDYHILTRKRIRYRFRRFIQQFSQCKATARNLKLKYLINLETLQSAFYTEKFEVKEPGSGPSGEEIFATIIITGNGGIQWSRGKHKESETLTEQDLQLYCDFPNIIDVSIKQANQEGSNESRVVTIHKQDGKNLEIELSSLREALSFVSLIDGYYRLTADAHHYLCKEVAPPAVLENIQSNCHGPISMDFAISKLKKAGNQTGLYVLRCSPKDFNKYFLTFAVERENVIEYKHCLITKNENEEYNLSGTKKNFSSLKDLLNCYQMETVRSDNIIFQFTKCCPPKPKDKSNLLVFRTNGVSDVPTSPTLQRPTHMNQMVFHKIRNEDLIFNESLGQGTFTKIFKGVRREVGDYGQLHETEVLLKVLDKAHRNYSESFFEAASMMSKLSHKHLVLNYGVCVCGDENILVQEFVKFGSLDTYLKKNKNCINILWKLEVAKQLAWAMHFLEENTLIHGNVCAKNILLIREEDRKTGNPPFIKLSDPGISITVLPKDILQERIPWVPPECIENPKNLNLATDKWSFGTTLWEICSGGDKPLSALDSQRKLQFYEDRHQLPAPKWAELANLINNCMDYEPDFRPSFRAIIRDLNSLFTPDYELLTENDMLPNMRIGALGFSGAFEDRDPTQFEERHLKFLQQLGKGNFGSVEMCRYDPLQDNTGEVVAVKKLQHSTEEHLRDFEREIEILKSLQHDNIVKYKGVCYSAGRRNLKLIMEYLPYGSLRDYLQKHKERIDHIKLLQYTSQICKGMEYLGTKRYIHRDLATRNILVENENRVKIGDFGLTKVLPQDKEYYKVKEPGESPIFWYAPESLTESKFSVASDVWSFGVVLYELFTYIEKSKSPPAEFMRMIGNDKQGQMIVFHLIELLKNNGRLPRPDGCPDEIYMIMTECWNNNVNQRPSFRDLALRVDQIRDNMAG
The data set is described as follows: JAK2 enzyme activity assay (Thermo Fisher Selectscreen, Z-lyte). In kind it is biochemical. The following applies: read-out: JAK2 Inhibition IC50. A digest of the protocol:
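Z-lyte FRET kinase format: 0.12-0.5 ng JAK2 with 2 μM Tyr 06 peptide in HEPES pH 7.5, 10 mM MgCl2, 1 h reaction, then development reagent. Compounds were run as 11-point dose-response, 2% DMSO vehicle. IC50 came from 4-parameter logistic fit of emission ratio.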

The nature of data set [3]: GI Exposure PK in Mice. The note with it: mouse, male BalbC mice, oral dose of 5 mg/kg. In kind it is in vivo. As for the experimental part: The test compound, Example 75, was wetted with ˜0.025% of Tween-20 and triturated in a mortar and pestle, then slowly 0.5% of methyl cellulose was added to make up the final volume to 7.25 mL. The BalbC test animals were subjected to anesthesia induced with a mixture of 5% isoflurane and 0.8-1.5 L/min O2 gas flow. The formulated test compound was then dosed via oral gavage. At various time points (0.5, 1, 2, 4, 6 and 8 h) blood samples (˜100 μL) were collected from portal vein (pre-hepatic) followed by cardiac puncture (circulating) into tubes containing 2% w/v aqueous K2 EDTA solution as per time points. Post blood sampling, the gastro intestine (GI) tissues were collected from the mice at the same time points. The GI tissue was dissected into different parts as duodenum, jejunum, ileum and colon. The separated tissues were washed by flushing with PBS via oral gavage needle to remove GI content. Post collection all the tissues were blotted, weighed and homogenized with PBS buffer (pH 7.4). The blood samples were immediately placed on ice and centrifuged within 30 min at 4° C. for 5 min at 8,000 rpm to obtain plasma. Plasma was transferred by pipettes to pre-labelled centrifuge tubes and immediately transferred to −80° C. until bioanalysis. Tissue samples were placed in pre-labelled container and all samples were kept in −80° C. until homogenized. The homogenate was stored immediately in −80° C. until bioanalysis was conducted. Study samples were thawed to room temperature and 50 μL of sample was aliquoted into pre-labeled vials. To these was added 400 μL of 100% acetonitrile containing an IS (100 ng/mL; warfarin, tolbutamide and loperamide). The vials were mixed well, vortexed for 5 min, followed by centrifugation for 5 min at 14000 rpm at 4° C. The supernatant was separated and same was injected on LC-MS/MS. Plasma and GI tissue levels of test compound were determined by LC-MS analysis using a standard curve in the text matrix. Individual concentration-time data were analyzed using Phoenix WinNonlin (Version 8.1) by the non-compartmental analysis (NCA) method.

Data set [4] has as its system IL-12 stimulated STAT4 phosphorylation on Tyr693 (JAK2/TYK2). The data set is described as follows: JAK2/TYK2 cellular target modulation: IL-12 stimulated phospho-STAT4 in human PBMC. It is filed as cell-based. The following applies: IL-12 1.7 ng/ml, read-out: IL12-STAT4 IC50. A digest of the protocol:
as §1

The mark [5] stands for this setting: portal vein plasma, Portal plasma.

These results are taken from US20220235043A1, “SUBSTITUTED SULFONAMIDE PYRROLOPYRIDINES AS JAK INHIBITORS” (ACLARIS THERAPEUTICS, INC., priority 2019, published 2022).

Molecules are shown by their SMILES. pIC50: −log10 of the molar value. A value given as a limit tells only on which side of the number the result lay.

The term pIC50 denotes the IC50 on a negative log10 scale, so that one unit is a factor of ten. Usually AUC stands for concentration integrated over time. Higher therefore signals high exposure. As a reminder, the Tmax is the time from dosing to the highest level. Take `Cc1nnc(-c2cnc3[nH]ccc3c2N[C@H]2C[C@@H](NS(=O)(=O)c3cccc(C#N)c3)C2)s1` [Example 75, 3-cyano-N-((1s,3s)-3-((5-(5-methyl-1,3,4-thiadiazol-2-yl)-1H-pyrrolo[2,3-b]pyridin-4-yl)amino)cyclobutyl)benzenesulfonamide]: the results for the pIC50 in data set [1], in data set [2] and in data set [4] were 6.00 to 7.00, at least 8.00 and 6.00 to 7.00, respectively. Also, the AUC turned out to be 247 ng·h/mL in data set [3] (setting [5]); 5950 ng·h/mL in data set [3] (Colon); 1510 ng·h/mL in data set [3] (Duodenum); 24500 ng·h/mL in data set [3] (Ileum); 13300 ng·h/mL in data set [3] (Jejunum). For the same compound, the Tmax turned out to be 2 h in data set [3] (setting [5]); 4 h in data set [3] (Colon); 0.5 h in data set [3] (Duodenum); 2 h in data set [3] (Ileum); 0.5 h in data set [3] (Jejunum).
